Measured values reported in US20240109914A1, “IMIDAZOTHIAZOLE COMPOUNDS AND ANALOGS THEREOF AND METHODS FOR TREATING NEMATODE INFECTIONS IN PLANTS” (The Governing Council of The University of Toronto, priority 2021, published 2024).
Like-named read-outs stand apart in the source and are kept apart here.

How the values were obtained:
[1] = test system: C. elegans; test: C. elegans dose-response (viability, minimum lethal concentration); assay type: in vivo, Caenorhabditis elegans
Experimental: Forty microliters of an HB101 E. coli bacterial suspension in liquid NGM (nematode growth media—see ref. 42 for the recipe) was added to each well of a 96-well flat-bottom culture plate, after which approximately 25 synchronized L1 worms, in 10 μl of M9 buffer (see ref. 43 for the recipe), were added to each well. The synchronized L1 worms were obtained from an embryo preparation performed the previous day (see ref. 43 for the protocol). For the L1 assays, 0.5 μl of test compound solution (or DMSO alone) was immediately added to the wells using a multichannel pipette; the final DMSO concentration is 1% (v/v). The worms were incubated for 3 days at 20° C. and the number of viable animals was counted.
At least three biological replicates were performed for each dose-response assay. For each biological replicate, two technical replicates were performed and the numbers of viable animals for each technical replicate were combined (i.e. ˜ 50 worms assayed per concentration). The number of viable worms at each concentration was divided by the corresponding DMSO control value to give the “relative viability” for each concentration. The “relative viability” values were then averaged across the biological replicates. Minimum lethal concentration was defined as the lowest concentration at which at least 20% of worms die.

[2] = test system: M. incognita J2 larvae; test: Meloidogyne incognita in vitro larval mobility assay; assay type: in vivo; conditions: 45 μM, 4 days; for Replicate 1 z-score / Replicate 2 z-score: z-score vs untreated DMSO wells; for pest or weed control at 45 µM: Meloidogyne incognita, 96 h
Summary of the method: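 Infective J2 juveniles of M. incognita Race 1, about 35 per well, were exposed to compound at 45 μM in deionized water with 0.5% DMSO for 4 days at 25° C without shaking. Immobile worms were counted as % of total, averaged over two replicates. A z-score against DMSO control wells was also computed, with z > 1.645 in both replicates marking a hit.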

[3] = test system: M. chitwoodi J2 larvae; test: Meloidogyne chitwoodi in vitro larval mobility assay; assay type: in vivo; conditions: 2 days, average of three replicates; for pest or weed control at 45 µM: Meloidogyne chitwoodi, 48 h, read-out: % Immobile
Experimental: M. chitwoodi race 1 (the strain commonly found in the pacific northwest of the United States) was used for all experiments, and was maintained on tomato plants (Solanum lycopersicum ‘Rutgers’) as previously described^47. The microwell dose-response experiments were carried out similarly to previously described protocols^44,46. […] The chemicals were tested at 45 μM, and the final concentration of DMSO in each well was 0.5% (v/v). The wells were covered with a plastic adhesive strip, and the lids of the plates were sealed with parafilm. The plates were incubated at 25° C. for 2 days. The percent of worms that were immobile (% immobile) was quantified by counting the number of immobile worms after 2 days of incubation, dividing the number of immobile worms by the total number of worms in the well, and then multiplying by 100. […] The average % immobile value was calculated across the three replicates.

[4] = test system: M. incognita; test: Meloidogyne incognita infectivity assay (soil, tomato roots); assay type: in vivo; conditions: 45 μM in soil, 8 weeks, eggs per mg root relative to DMSO control; for pest or weed control at 45 µM: Meloidogyne incognita, 1344 h, read-out: % effectiveness at inhibiting reproduction of M. incognita
Description: An M. incognita population originally collected from grape (Vitis vinifera) in Parlier, California, was used for all experiments, and they were maintained on tomato plants (Solanum lycopersicum ‘Rutgers’) as previously described^47. Infective J2 juveniles were collected as described in ref. 47.

[5] = test system: tomato plants; test: Root mass of tomato plants in the soil infectivity assay; conditions: 45 μM in soil, 8 weeks
Experimental: For the infectivity assays, 90 grams of soil (1:1 sand:loam mix) was added to each cell of several 6-cell plastic garden packs. The soil was drenched with 18 mL of deionized water containing dissolved test compound or DMSO alone. 2,500 infective J2 juveniles were then added to the soil in 2 mL of deionized water, for a total water volume of 20 mL. […] The DMSO concentration varied from 0.1% to 0.8% (v/v) depending on the stock concentration of the test compound. The highest DMSO concentration was used as the DMSO control. The J2s were incubated in the soil and chemical for 24 hours, after which two- to three-week old tomato seedlings were transplanted into the soil (one plant per cell). Two replicates were performed for each chemical treatment, and four replicates were done for the DMSO controls. The whole experiment was replicated twice, in two different batches on two different days, for a total of four replicates for each test compound treatment, and eight replicates for the DMSO controls. Inoculated plants were grown for 8 weeks in a greenhouse, as described^47, under long-day conditions (16-h photoperiod) with 26/18° C. day/night temperatures. After 8 weeks, the plants were destructively harvested. The tops were removed and discarded, and roots were gently washed with water to remove adhering soil. Eggs were extracted by placing rinsed roots in 0.6% sodium hypochlorite and agitating at 300 rpm for 3 min. Roots were then rinsed over nested 250—and 25.4-μm sieves, with eggs collected from the latter and suspended in water. Roots were dried in a 65° C. oven for at least 24 hours, after which dry roots were weighed. The number of eggs from each plant root was counted on a dissection microscope using a haemocytometer, and the number of eggs per milligram of root was calculated by dividing the total egg number by the mass of the dried root material. An average was taken across the replicates performed on the same day, and then normalized to the DMSO control average. […] An average percent effectiveness value was then calculated across the two different batches carried out on different days.

[6] = test system: M. hapla eggs; test: Meloidogyne hapla in vitro egg hatch assay; assay type: in vivo; conditions: 45 μM; for Number of Hatched Eggs: 8 days at room temperature, about 90 eggs per well, tested once; for Number of Hatched Eggs z-score: 8 days, z-score vs 8 untreated DMSO wells
Summary of the method: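 About 90 eggs per well, freed from carrot-root egg masses with 10% bleach for 4 min, were exposed in deionized water to 0.5 μL compound or DMSO. Hatched eggs were counted after 8 days at room temperature without shaking in humid conditions. Each treatment was tested once, with z-scores calculated from 8 untreated DMSO control wells.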

[7] = test system: M. chitwoodi; test: Meloidogyne chitwoodi infectivity assay (soil, tomato roots); assay type: in vivo; conditions: 45 μM in soil, 8 weeks, egg counts relative to DMSO control
Experimental: M. chitwoodi race 1 (the strain commonly found in the pacific northwest of the United States) was used for all experiments, and was maintained on tomato plants (Solanum lycopersicum ‘Rutgers’) as previously described^47. The M. chitwoodi infectivity assays were performed identically to the M. incognita infectivity assays (see above), with the exception that egg counts were not normalized to the mass of the roots. Four technical replicates were performed in a single batch.

[8] = test system: HepG2 cells; test: HepG2 cell proliferation assay; assay type: cell-based, human
Experimental: HepG2 cells, which are liver-derived, were counted using a haemocytometer, diluted, and seeded in […] to a final density of 5×10^4 cells/mL in 100 uL of RPMI-1640 medium supplemented with 10% heat inactivated fetal bovine serum (Gibco) and 1.2× Antibiotic-Antimycotic (Gibco). Cells were incubated at 37° C. with 5% CO2 for 24 hours. Subsequently, a 2-fold dilution series of test compound was added to cells at a final volume of 200 uL and incubated at 37° C. with 5% CO2 for 72 hours. After 72 hours, Alamar Blue (Invitrogen) was added to the Hep G2 cells at a final concentration of 0.5× and plates were incubated at 37° C. for 4 hours. Fluorescence was measured at Ex560 nm/Em590 nm and corrected for background from the medium. All assays were performed in technical triplicates and in at least two biological replicates. The IC50 value was defined as the concentration that inhibits cell proliferation by 50% of the untreated control cells.

[9] = test system: Zebrafish; test: Zebrafish dose-response experiments; assay type: in vivo, Danio rerio; conditions: for Zebrafish LC100: lowest concentration at which all of the fish are dead, 45, 15, 5 μM tested
Experimental: (§1) Zebrafish were maintained and handled under the guidance and approval of the Canadian Council on Animal Care and the Hospital for Sick Children Laboratory Animal Services. Dose-response assays were performed using zebrafish (Danio rerio) at 3 days post-fertilization. Three wild-type (TLAB) embryos were analyzed in each well of a 24-well plate containing 1 mL of E3 medium (5 mM NaCl, 0.17 mM KCl, 0.33 mM CaCl2, 0.33 mM MgSO4). Test compounds were added to each well to reach final concentrations of 45 μM, 15 μM, and 5 μM (0.5% v/v DMSO), as well as a DMSO control well. The viability of the fish was assessed after 3 days of test compound exposure using a Zeiss standard dissection microscope.

[10] = Zebrafish dose-response experiments; assay type: in vivo, Danio rerio; conditions: TLAB (wild-type), zebrafish (Danio rerio), in vivo; bound inferred from the tested concentrations, 3 days exposure
Experimental: as §1

[11] = Caenorhabditis elegans, 72 h, L1 worms, 3 days at 20° C., lowest concentration at which at least 20% of worms die, read-out: Minimum Lethal Concentration
[12] = Caenorhabditis elegans, 72 h, L1 worms, 3 days at 20° C., same values in ppm, read-out: Minimum Lethal Concentration (ppm)
[13] = average of the two replicates, read-out: Average % Immobile
[14] = replicate 1, read-out: Replicate 1 % Immobile
[15] = replicate 2, read-out: Replicate 2 % Immobile
[16] = 72 hours, Alamar Blue, cell proliferation

SMILES | minimal effective concentration [1, 11] [µM] | minimal effective concentration [1, 12] [µg/mL] | Replicate 1 z-score ([2]; replicate 1) | Replicate 2 z-score ([2]; replicate 2) | pest or weed control at 45 µM [2, 13] [%] | pest or weed control at 45 µM [2, 14] [%] | pest or weed control at 45 µM [2, 15] [%] | pest or weed control at 45 µM [3] [%] | pest or weed control at 45 µM [4] [%] | Normalized root mass (relative to DMSO control) [5] | Number of Hatched Eggs [6] | Number of Hatched Eggs z-score [6] | % effectiveness at inhibiting reproduction of M. chitwoodi [7] [%] | Zebrafish LC100 ([9]; 3 days exposure) [µM] | also measured
Cc1c(-c2ccc(F)cc2)nc2sccn12 [I-13] | > 100 | > 23.2 | [2.58] | [2.14] | 28.4 | 35.3 | 21.6 | 32.4 | 0 | 1.12 |  |  |  |  | 
CCc1ccc(-c2cn3ccsc3n2)cc1 [I-7] | 50 | 11.4 | [10.58] | [3.55] | 51.9 | 74.5 | 29.4 | > 75 |  |  | 1 | [4.30] | 59.3 |  | 
c1ccc(-c2noc(-c3cccs3)n2)cc1 [tioxazafen, reference compound] |  |  | [14.82] | [21.99] |  |  |  |  |  | 1.09 | 1 | [4.30] |  | 15 | minimal effective concentration ([1]; L1 worms, 3 days at 20° C., lowest concentration at which at least 20% of worms die, read-out: Minimum Lethal Concentration): 3.125 µM; Minimum Lethal Concentration (ppm) ([1]; L1 worms, 3 days at 20° C., same values in ppm): 0.7 ppm; times more potent at killing C. elegans than compound I-46 ([1]; tioxazafen versus compound I-46, minimum lethal concentration): 32; Average % Immobile ([2]; average of the two replicates): 100.00%; Replicate 1 % Immobile ([2]; replicate 1): 100.00%; Replicate 2 % Immobile ([2]; replicate 2): 100.00%; % Immobile ([3]; 45 μM): 42.7%; % effectiveness at inhibiting reproduction of M. incognita [4]: 43.7%; HepG2 IC50 [8, 16]: relatively inactive; IC50 [8, 16]: > 100 µM; LC50 ([9]; bound inferred from the tested concentrations, 3 days exposure): ≤ 15 µM; times more potent at killing fish than compound I-46 ([9]; tioxazafen versus compound I-46, zebrafish): at least 3
CCc1ccc(-c2cn3cc(C)sc3n2)cc1 [I-10] | 6.25 | 1.5 |  |  |  |  |  |  | 18.5 | 1.30 |  |  | 63.7 |  | 
Cc1c(-c2ccc(Br)cc2)nc2sccn12 [I-33] | 12.5 | 3.7 | [1.78] | [4.16] | 32.1 | 31.4 | 32.8 | 58.1 | 7.9 | 1.45 |  |  |  |  | 
Clc1ccc(-c2cn3ccsc3n2)nc1 [I-46] | 100 | 23.6 | [10.33] | [12.18] | ≥ 75 | 73.2 | 77.1 | 56.4 | 37.7 | 1.56 |  |  |  | >45 | IC50 ([8]; Homo sapiens, HepG2, 72 hours, Alamar Blue, cell proliferation): > 100 µM; HepG2 IC50 (ppm) ([8]; approximate ppm equivalent of 100 μM): > 23 ppm; LC50 at 3 days [10]: > 45 µM; lethality to zebrafish ([9]; concentrations up to 45 μM, the highest concentration tested): non-lethal
